# Test results: patent US20260223850A1, “SUBSTITUTED PYRROLIDONE COMPOUND, PREPARATION METHOD THEREFOR, COMPOSITION AND APPLICATION THEREOF” (QINGDAO KINGAGROOT CHEMICAL COMPOUND CO., LTD., priority 2023, published 2026)
# How the values were obtained:
# Echinochloa crusgalli = assay: Seedling stage sealing experiment for water-seeding; type: in vivo; settings: 120 g a.i./ha, 15 days, fresh weight control rate
# Text: (§1) The activity level criteria for plant damage (i.e., growth control rate) are as follows: • Level 9: completely dead; • Level 8: growth control rate greater than or equal to 90% and less than 100%; • Level 7: growth control rate greater than or equal to 80% and less than 90%; • Level 6: growth control rate greater than or equal to 70% and less than 80%; • Level 5: growth control rate greater than or equal to 50% and less than 70%; • Level 4: growth control rate greater than or equal to 30% and less than 50%; • Level 3: growth control rate greater than or equal to 20% and less than 30%; • Level 2: growth control rate greater than or equal to 10% and less than 20%; • Level 1: growth control rate less than 10%; • Level 0: no effect.
# (§2) The above growth control rates are fresh weight control rates.
# (§3) Echinochloa phyllopogon, Digitaria sanguinalis, Huaidao (rice cultivar), etc. were broadcasted on the surface of nutrition bowls filled with soil and fully covered by soil. The foregoing well-prepared nutrition bowls were then placed in a cultivation box with water filled to a suitable height to keep the soil in the nutrition bowls moist. A test compound of the present invention was individually dissolved with acetone, then diluted into solution of a certain concentration using a certain amount of water, and sprayed using a spray tower. The plants were placed on a greenhouse seedbed and cultured for 15 days, and the experimental results were then collected. The compound was applied at 120, 60, 30 and 15 g a.i./ha in triplicate, and the results were averaged.
# Echinochloa phyllopogon = assay: as above; type: in vivo; settings: 120 g a.i./ha, 15 days, fresh weight control rate
# Text: as §1, §2, §3
# [1] = spray, seedling stage sealing for water-seeding
SMILES,Echinochloa crusgalli activity level (growth control rate) (Echinochloa crusgalli; seedling stage sealing),Echinochloa phyllopogon activity level (growth control rate) (Echinochloa phyllopogon; seedling stage sealing),Echinochloa crusgalli activity level (growth control rate) (Echinochloa crusgalli; [1]),Echinochloa phyllopogon activity level (growth control rate) (Echinochloa phyllopogon; [1])
CN1CC(c2cc(F)cc(F)c2F)C(C(=O)Nc2cnn(C)c2Cl)C1=O (stereo not shown) [Compound 332],5 (Level 5: growth control rate greater than or equal to 50% and less than 70%),–,–,–
Cc1cc(C)cc([C@H]2CN(C)C(=O)[C@@H]2C(=O)Nc2cnn(C)c2C#N)c1 [434′],9,9,–,–
CSc1c(NC(=O)[C@H]2C(=O)N(C)C[C@@H]2c2cccc(C(F)(F)F)c2)cnn1C [479′],–,–,9,9
Cc1ccccc1[C@H]1CN(C)C(=O)[C@@H]1C(=O)Nc1cnn(C)c1Cl [124′],6 (Level 6: growth control rate greater than or equal to 70% and less than 80%),–,–,–
COc1cc(OC)cc(C2CN(C)C(=O)C2C(=O)Nc2cnn(C)c2Cl)c1 (stereo not shown) [Compound 302],6 (Level 6: growth control rate greater than or equal to 70% and less than 80%),5 (Level 5: growth control rate greater than or equal to 50% and less than 70%),–,–
CSc1c(NC(=O)[C@H]2C(=O)N(C)C[C@@H]2c2cc(C)cc(C)c2)cnn1C [431′],9,9,–,–
Cc1ccc([C@H]2CN(C)C(=O)[C@@H]2C(=O)Nc2cnn(C(F)F)c2Cl)cc1F [444′],–,–,9,9
CN1C[C@H](c2cccc(C(F)(F)F)c2)[C@@H](C(=O)Nc2cnn(C)c2C(F)(F)F)C1=O [404′],9,9,–,–
CN1C[C@H](c2cccc(C(F)(F)F)c2)[C@@H](C(=O)Nc2cnn(C)c2N)C1=O [198′],5 (Level 5: growth control rate greater than or equal to 50% and less than 70%),–,–,–
CN1C[C@H](c2cccc(C(F)(F)F)c2)[C@@H](C(=O)Nc2cnn(C)c2Cl)C1=O [1′],9,6 (Level 6: growth control rate greater than or equal to 70% and less than 80%),–,–
CO/N=C/c1cccc([C@H]2CN(C)C(=O)[C@@H]2C(=O)Nc2cnn(C)c2Cl)c1 [232′],6 (Level 6: growth control rate greater than or equal to 70% and less than 80%),–,–,–
Cc1cc(C)cc([C@H]2CN(C)C(=O)[C@@H]2C(=O)Nc2cnn(C(F)F)c2C2CC2)c1 [429′],9,9,–,–
CN1CC(c2ccc(-c3cccc(C(F)(F)F)c3)cc2)C(C(=O)Nc2cnn(C)c2Cl)C1=O (stereo not shown) [Compound 261],6 (Level 6: growth control rate greater than or equal to 70% and less than 80%),5 (Level 5: growth control rate greater than or equal to 50% and less than 70%),–,–
CCn1ncc(NC(=O)[C@H]2C(=O)N(C)C[C@@H]2c2cccc(C(F)(F)F)c2)c1Cl [95′],9,8 (Level 8: growth control rate greater than or equal to 90% and less than 100%),–,–
CN1CC(c2ccc3occc3c2)C(C(=O)Nc2cnn(C)c2Cl)C1=O (stereo not shown) [Compound 355],5 (Level 5: growth control rate greater than or equal to 50% and less than 70%),–,–,–
CN1CC(c2ccc(OC(F)(F)F)cc2)C(C(=O)Nc2cnn(C)c2Cl)C1=O (stereo not shown) [Compound 254],5 (Level 5: growth control rate greater than or equal to 50% and less than 70%),5 (Level 5: growth control rate greater than or equal to 50% and less than 70%),–,–

SMILES,Echinochloa crusgalli activity level (growth control rate) (Echinochloa crusgalli; seedling stage sealing),Echinochloa phyllopogon activity level (growth control rate) (Echinochloa phyllopogon; seedling stage sealing),Echinochloa crusgalli activity level (growth control rate) (Echinochloa crusgalli; [1]),Echinochloa phyllopogon activity level (growth control rate) (Echinochloa phyllopogon; [1])
CCc1c(NC(=O)[C@H]2C(=O)N(C)C[C@@H]2c2cccc(C(F)(F)F)c2)cnn1C(F)F [403′],9,9,–,–
CSc1c(C(F)(F)F)ccc(C2CN(C)C(=O)C2C(=O)Nc2cnn(C)c2Cl)c1Cl (stereo not shown) [Compound 330],6 (Level 6: growth control rate greater than or equal to 70% and less than 80%),5 (Level 5: growth control rate greater than or equal to 50% and less than 70%),–,–
Cc1ccc([C@H]2CN(C)C(=O)[C@@H]2C(=O)Nc2cnn(C)c2Cl)s1 [335′],7 (Level 7: growth control rate greater than or equal to 80% and less than 90%),–,–,–
CN1CC(c2cc(F)cc(C(F)(F)F)c2)C(C(=O)Nc2cnn(C)c2C(F)(F)F)C1=O (stereo not shown) [Compound 508],–,–,9,9
CN1C[C@H](c2cccc(OC(F)(F)F)c2)[C@@H](C(=O)Nc2cnn(C(F)F)c2Cl)C1=O [414′],9,9,–,–
Cc1ccc([C@H]2CN(C)C(=O)[C@@H]2C(=O)Nc2cnn(C)c2C)cc1 [415′],9,9,–,–
CN1C[C@H](c2cccc(Oc3ccccn3)c2)[C@@H](C(=O)Nc2cnn(C)c2Cl)C1=O [360′],7 (Level 7: growth control rate greater than or equal to 80% and less than 90%),–,–,–
Cc1ccc(C2CN(C)C(=O)C2C(=O)Nc2cnn(C)c2C(F)(F)F)cc1C (stereo not shown) [Compound 488],–,–,9,9
CCc1c(NC(=O)[C@H]2C(=O)N(C)C[C@@H]2c2cccc(C)c2)cnn1C(F)F [466′],–,–,9,9
CN1C[C@H](c2ccc(C(F)(F)F)c(F)c2Cl)[C@@H](C(=O)Nc2cnn(C)c2Cl)C1=O [329′],7 (Level 7: growth control rate greater than or equal to 80% and less than 90%),6 (Level 6: growth control rate greater than or equal to 70% and less than 80%),–,–
C=C(C)c1ccc(C2CN(C)C(=O)C2C(=O)Nc2cnn(C)c2Cl)cc1 (stereo not shown) [Compound 252],7 (Level 7: growth control rate greater than or equal to 80% and less than 90%),9,–,–
Cc1cc(C)cc([C@H]2CN(C)C(=S)[C@@H]2C(=S)Nc2cnn(C)c2Cl)c1 [451′],–,–,8 (Level 8: growth control rate greater than or equal to 90% and less than 100%),7 (Level 7: growth control rate greater than or equal to 80% and less than 90%)
CSc1c(NC(=O)[C@H]2C(=O)N(C)C[C@@H]2c2cccc(C)c2)cnn1C [393′],9,9,–,–
Cc1cccc([C@H]2CN(C)C(=O)[C@@H]2C(=O)Nc2cnn(C(F)F)c2C2CC2)c1 [395′],9,9,–,–
COCc1ccc([C@H]2CN(C)C(=O)[C@@H]2C(=O)Nc2cnn(C)c2Cl)cc1 [253′],6 (Level 6: growth control rate greater than or equal to 70% and less than 80%),–,–,–
CC(C)c1ccc([C@H]2CN(C)C(=O)[C@@H]2C(=O)Nc2cnn(C)c2Cl)cc1 [245′],–,5 (Level 5: growth control rate greater than or equal to 50% and less than 70%),–,–
